The record followed here is BindingDB's records for doi:10.1111/j.1747-0285.2009.00881.x (University of Notre Dame, 2009).

Where only a bound is given, the exact number is not on record here.

The target in this test is 72 kDa type IV collagenase (Homo sapiens, UniProt P08253). The experiment in a line: Inhibition Assay. The text has this: Inhibition assay using matrix metalloproteinase (MMP-2).
Sequence of 72 kDa type IV collagenase (P08253 whole entry): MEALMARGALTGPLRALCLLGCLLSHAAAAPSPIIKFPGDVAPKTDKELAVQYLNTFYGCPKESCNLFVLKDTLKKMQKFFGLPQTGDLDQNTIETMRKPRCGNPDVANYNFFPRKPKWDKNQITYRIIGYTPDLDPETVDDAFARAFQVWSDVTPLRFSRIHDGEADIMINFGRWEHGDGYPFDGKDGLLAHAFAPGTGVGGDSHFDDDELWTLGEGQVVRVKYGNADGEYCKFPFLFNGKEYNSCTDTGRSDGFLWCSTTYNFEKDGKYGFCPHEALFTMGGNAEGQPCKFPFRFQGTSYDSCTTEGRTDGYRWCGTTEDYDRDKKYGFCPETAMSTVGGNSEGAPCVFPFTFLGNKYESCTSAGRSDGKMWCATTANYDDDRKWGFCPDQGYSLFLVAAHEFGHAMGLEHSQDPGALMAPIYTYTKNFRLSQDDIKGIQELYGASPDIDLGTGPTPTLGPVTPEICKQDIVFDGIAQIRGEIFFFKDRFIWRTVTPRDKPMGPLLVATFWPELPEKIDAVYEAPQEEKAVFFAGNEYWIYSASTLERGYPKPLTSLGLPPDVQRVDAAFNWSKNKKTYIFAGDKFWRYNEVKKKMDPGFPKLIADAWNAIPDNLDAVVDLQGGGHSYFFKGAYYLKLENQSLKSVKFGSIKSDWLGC
Broadly, the Ki is a dissociation constant, usually derived from enzyme kinetics or from competition with a known ligand. `O=S(=O)(/C=C/CS)c1ccc(Oc2ccccc2)cc1` [Vinylsulfone, 7] returned a Ki of 0.53 nM.

Compound `CC(C)(C1CS1)S(=O)(=O)c1ccc(Oc2ccccc2)cc1` (stereo not drawn) [Alpha, alpha-dimethyl derivative, 5] returned a Ki of more than 40000 nM.

With `[O-][S+](CC1CS1)c1ccc(Oc2ccccc2)cc1` (centres undefined) [Sulfoxide, 4], the Ki was 2100 nM.

Consider `CC1(C)SC1CS(=O)(=O)c1ccc(Oc2ccccc2)cc1` (centres undefined) [Gama, gama-dimethyl derivative, 6], for which the Ki was 1400 nM.
